Measured values published in patent US20150265584A1, “LEVUGLANDIN ADDUCTS HISTONE H4 IN A CYCLOOXYGENASE-2-DEPENDENT MANNER, ALTERING ITS INTERACTION WITH DNA” (VANDERBILT UNIVERSITY, priority 2014, published 2015).

What was measured:
[1] = tested on: RAW264.7 cells; experiment: LG-lysyl adduct formation on histones in COX-2-stimulated, AA-treated RAW264.7 cells (LC/ESI/MS/MS); type: cell-based, mouse; details: for LG adduct formation on histones (LG-lysyl lactam adduct): 500 μM scavenger pretreated 45 min, 20 μM AA 1 h, n=2
Experimental: (§1) To stimulate COX-2 expression, A549 or RAW264.7 cells were treated overnight with 5 ng/mL IL-1β (A549) or 10 μg/mL LPS and 10 U/mL IFNγ (RAW264.7) in serum-free medium. When indicated, cells were pretreated with indomethacin, aldehyde scavengers (glucosamine, 3-MoSA, PPM or EtSA), or vehicle (ethanol for indomethacin, H2O for scavengers) for 45 min, and then given 20 μM arachidonic acid (AA) or DMSO vehicle for 1 h before lysing.
Cultured cells were lysed in hypotonic buffer (10 mM Tris/10 mM NaCl/3 mM MgCl2) containing 1 mM pyridoxamine and 100 μM indomethacin to prevent the artifactual formation of LGE2 during the lytic process. After letting cells swell on ice, membranes were disrupted by addition of Triton X-100 (0.5% final concentration) and vortexing. Nuclei were isolated by centrifugation for 10 min at 1000×g, and the resulting pellet washed with PBS. Histones were extracted in 0.4 N H2SO4, precipitated with trichloracetic acid, and washed with acetone. […] Histones were resolubilized in dilute NaOH, and pH neutralized with HCl. Protein concentration was determined using the method of Bradford. For tissue, a portion of frozen liver was homogenized in buffer containing 40 mM sodium citrate, and 1% Triton X-100 with 3 mM Trolox and 100 μM indomethacin. The supernatant was separated from settled debris, and nuclei were pelleted at 500×g and washed. Nuclear pellets were frequently transferred to fresh tubes to avoid contamination by floating lipid debris; any remaining was removed with a cotton swab. Histones were extracted as above. All centrifugation steps were carried out at 4° C.
Histone samples were prepared for mass spectrometry by addition of ammonium bicarbonate to 5 mM final concentration before digesting to single amino acids by protease step-digestion as previously described. In the case of immunoblots, proteins were digested directly off the nitrocellulose through incubation of the nitrocellulose strip in 30 μg/mL Pronase in ammonium bicarbonate buffer, and later addition of aminopeptidase. All samples were centrifuged at 2000×g for 10 min. after final digestion to remove precipitate, spiked with 0.2 ng ^13C-lysyl-lactam internal standard, and purified on prepared tC18 cartridges (Waters Corp., Milford, Mass.). Samples on tC18 cartridges were washed with water, then 30% methanol, before being eluted in 80% methanol and concentrated by evaporation. Samples were evaluated by electrospray ionization (ESI) LC/MS/MS on a ThermoFisher TSQ Quantum triple quadrapole mass spectrometer in positive ion mode and quantitated by isotopic dilution as previously described, with the exception of a reduced flow rate of 0.1 mL/min.

[2] = tested on: A549 cells; experiment: LG-lysyl adduct formation on histones in COX-2-stimulated, AA-treated A549 cells (LC/ESI/MS/MS); type: cell-based, human
Experimental: as §1
Cultured cells were lysed in hypotonic buffer (10 mM Tris/10 mM NaCl/3 mM MgCl2) containing 1 mM pyridoxamine and 100 μM indomethacin to prevent the artifactual formation of LGE2 during the lytic process. After letting cells swell on ice, membranes were disrupted by addition of Triton X-100 (0.5% final concentration) and vortexing. […] Protein concentration was determined using the method of Bradford. […]
Histone samples were prepared for mass spectrometry by addition of ammonium bicarbonate to 5 mM final concentration before digesting to single amino acids by protease step-digestion as previously described. […] Samples were evaluated by electrospray ionization (ESI) LC/MS/MS on a ThermoFisher TSQ Quantum triple quadrapole mass spectrometer in positive ion mode and quantitated by isotopic dilution as previously described, with the exception of a reduced flow rate of 0.1 mL/min.

[3] = tested on: COX-2; experiment: PGE2 production in cell media as measure of COX-2 activity (GC/MS), A549 cells; type: cell-based, human
Experimental: as §1
A sample of cellular media was taken just prior to lysis and centrifuged to remove any cellular debris. For PGE2 analysis, samples were spiked with 2 ng of [^2H7] PGE2 as an internal standard. Prostaglandins were isolated and derivatized for analysis by GC/MS, operating in negative ion chemical ionization (NICI) mode and monitoring selected ions as previously described. For the […] internal standard, m/z=528. To account for the deuterium-protium exchange at the position C12 of [^2H7] PGE2, the summation of the signals obtained at m/z=530, m/z=531 and m/z=532 was performed.

[4] = tested on: histone H4; experiment: Salt extraction of A549 nuclei, histone H4 solubility (Western blot); type: cell-based, human; details: A549 cells, 500 μM EtSA 45 min prior to 20 μM AA; 0.6-1.2 M NaCl
Experimental: 60-80% confluent A549 cells were stimulated and treated with AA±500 μM EtSA before scraping cells in lysis media for nuclear isolation as above. After addition of Tritox X-100 and vortexing, 1.5 mL of each sample was aliquoted into an eppendorf and centrifuged to separate nuclei. Pellets were washed with PBS and all buffer removed. Nuclear pellets were resuspended in extraction buffer containing 0.6M, 0.9M, 1.2M or 1.5M NaCl (with 10 mM Tris, pH 7.5, 3 mM MgCl2, 0.5% NP-40, and protease inhibitor cocktail) and incubated 10 min on ice. Following this extraction period, the nuclei were centrifuged at 16,000×g to obtain the soluble fraction. This was sonicated, denatured at 95° C., and analyzed by SDS-PAGE and Western blotting, using Ponceau stain to visualize proteins and confirm equal loading, and anti-H4 antibody (Abcam, Cambridge, Mass.).

Molecule | LG adduct formation on histones (LG-lysyl lactam adduct) ([1]; RAW264.7 cells) | protecting histones from modification by levuglandins, comparison with other scavengers ([1]; in comparison with salicylamine, pyridoxamine and their other analogues) | LG-histone adduct formation ([2]; stimulated A549 cells, 30, 300 or 1000 μM EtSA, 20 μM AA 1 h) | PGE2 production ([3]; highest concentration tested (1000 μM EtSA), 20 μM AA 1 h) | PGE2 production ([3]; lower doses of EtSA (data not shown)) | histone H4 elution at lower salt concentrations (DNA-histone interaction) [4] | LG-histone adduct formation ([1]; RAW264.7 cells, 50 μM indomethacin preincubated 45 min, 20 μM AA) | LG-histone adduct formation ([2]; A549 cells, 50 μM indomethacin preincubated 45 min, 20 μM AA)
CCc1ccc(O)c(CN)c1 [EtSA, 5-ethylsalicylamine] | most effectively blocked adduct formation | most potent in protecting histones from modification by levuglandins | inhibited LG-histone adduct formation | without affecting PGE2 production | no effect on PGE2 production | reversed | – | –
COc1ccc2c(c1)c(CC(=O)O)c(C)n2C(=O)c1ccc(Cl)cc1 [indomethacin, reference compound] | – | – | – | – | – | – | blocked | blocked
pentylpyridoxamine [PPM, reference compound] | partially inhibited histone adduct formation, but was much less potent than 5-ethylsalicylamine | – | – | – | – | – | – | –
